# Measurements reported in patent US11746139B2, “IL-7Rαγc binding compounds” (MEDIKINE, INC., priority 2020, dated 2023).
# Molecular target: T1, Rγc subunit (Homo sapiens, UniProt P31785)
# T1 construct: purchased ACRObiosystems, Inc. ILG-H5256
# Test: Alanine scan competition binding assay, binding to Rγc subunit
# Settings: alanine scan peptides
# T1 sequence (P31785 23-254): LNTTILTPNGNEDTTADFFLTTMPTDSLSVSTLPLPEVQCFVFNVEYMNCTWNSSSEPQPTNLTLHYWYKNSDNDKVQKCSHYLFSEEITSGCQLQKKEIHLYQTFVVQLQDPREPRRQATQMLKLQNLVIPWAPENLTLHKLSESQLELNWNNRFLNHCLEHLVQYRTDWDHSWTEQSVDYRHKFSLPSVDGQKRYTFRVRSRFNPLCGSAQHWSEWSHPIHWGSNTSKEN
row,IC50,Compound
1,< 50 nM,"CC(C)C[C@@H]1NC(=O)[C@H](CCC(=O)O)NC(=O)[C@H](C(C)C)NC(=O)CNC(=O)[C@H](CCC(=O)O)NC(=O)[C@H](Cc2c[nH]c3ccccc23)NC(=O)[C@H](CC(=O)O)NC(=O)[C@H](CCC(N)=O)NC(=O)[C@@H](NC(=O)[C@@H](NC(=O)[C@@H](NC(=O)CNC(=O)CN)C(C)C)C(C)C)CSSC[C@@H](C(=O)N[C@@H](Cc2c[nH]c3ccccc23)C(=O)N[C@@H](CCC(N)=O)C(=O)NCC(=O)NCC(=O)O)NC1=O [SEQ ID NO: 1031, G G V V C Q D W E G V E L C W Q G G]"

# Molecular target: IL-7Rα (Homo sapiens, UniProt P16871)
# Test: Competition binding ELISA with bn407::NA-HRP precomplex
# Settings: bn407:NA-HRP 10 nM final; read-out: Competitive Binding ELISA bn407:NA-HRP (10 nMf) IC50 M
# Sequence of IL-7Rα (P16871 21-236): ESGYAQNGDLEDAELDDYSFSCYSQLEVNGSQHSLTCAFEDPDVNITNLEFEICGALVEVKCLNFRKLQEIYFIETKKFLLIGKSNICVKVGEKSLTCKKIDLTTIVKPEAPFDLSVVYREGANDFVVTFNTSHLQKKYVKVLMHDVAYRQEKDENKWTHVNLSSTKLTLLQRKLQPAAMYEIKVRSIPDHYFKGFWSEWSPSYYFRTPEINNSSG
row,Compound,IC50
1,"CC[C@H](C)[C@H](N)C(=O)N1CCC[C@H]1C(=O)N[C@@H](Cc1c[nH]c2ccccc12)C(=O)N[C@H]1CSSC[C@@H](C(=O)N[C@@H](C)C(=O)N[C@@H](C)C(=O)N[C@@H](CC(C)C)C(=O)N[C@@H](CCCNC(=N)N)C(=O)N[C@@H](CCC(N)=O)C(=O)N[C@@H](CCSC)C(=O)NCC(=O)NCC(=O)O)NC(=O)[C@H](CCC(N)=O)NC(=O)[C@H](CC(C)C)NC(=O)CNC(=O)CNC(=O)[C@@H]2CCCN2C(=O)[C@H](CC(=O)O)NC(=O)[C@H](CC(C)C)NC(=O)[C@H]([C@@H](C)O)NC1=O [SEQ ID NO: 421, I P W C T L D P G G L Q C A A L R Q M]",7580 nM
2,"CC[C@H](C)[C@H](N)C(=O)N1CCC[C@H]1C(=O)N[C@@H](Cc1c[nH]c2ccccc12)C(=O)N[C@H]1CSSC[C@@H](C(=O)N[C@@H](C)C(=O)N[C@@H](Cc2ccccc2)C(=O)N[C@@H](CC(C)C)C(=O)N[C@@H](CCCNC(=N)N)C(=O)N[C@@H](CCC(N)=O)C(=O)N[C@@H](CCSC)C(=O)NCC(=O)NCC(=O)O)NC(=O)[C@H](CCC(N)=O)NC(=O)[C@H](CC(C)C)NC(=O)CNC(=O)CNC(=O)[C@@H]2CCCN2C(=O)[C@H](CC(=O)O)NC(=O)[C@H](CC(C)C)NC(=O)[C@H]([C@@H](C)O)NC1=O [SEQ ID NO: 422, I P W C T L D P G G L Q C A F L R Q M]",903 nM
3,"CC[C@H](C)[C@H](N)C(=O)N1CCC[C@H]1C(=O)N[C@@H](Cc1c[nH]c2ccccc12)C(=O)N[C@H]1CSSC[C@@H](C(=O)N[C@@H](C)C(=O)N[C@@H](Cc2ccc(O)cc2)C(=O)N[C@@H](CC(C)C)C(=O)N[C@@H](CCCNC(=N)N)C(=O)N[C@@H](CCC(N)=O)C(=O)N[C@@H](CCSC)C(=O)NCC(=O)NCC(=O)O)NC(=O)[C@H](CCC(N)=O)NC(=O)[C@H](CC(C)C)NC(=O)CNC(=O)CNC(=O)[C@@H]2CCCN2C(=O)[C@H](CC(=O)O)NC(=O)[C@H](CC(C)C)NC(=O)[C@H]([C@@H](C)O)NC1=O [SEQ ID NO: 423, I P W C T L D P G G L Q C A Y L R Q M]",664 nM
4,"CC[C@H](C)[C@H](N)C(=O)N1CCC[C@H]1C(=O)N[C@@H](Cc1c[nH]c2ccccc12)C(=O)N[C@H]1CSSC[C@@H](C(=O)N[C@@H](C)C(=O)N[C@@H](Cc2c[nH]cn2)C(=O)N[C@@H](CC(C)C)C(=O)N[C@@H](CCCNC(=N)N)C(=O)N[C@@H](CCC(N)=O)C(=O)N[C@@H](CCSC)C(=O)NCC(=O)NCC(=O)O)NC(=O)[C@H](CCC(N)=O)NC(=O)[C@H](CC(C)C)NC(=O)CNC(=O)CNC(=O)[C@@H]2CCCN2C(=O)[C@H](CC(=O)O)NC(=O)[C@H](CC(C)C)NC(=O)[C@H]([C@@H](C)O)NC1=O [SEQ ID NO: 424, I P W C T L D P G G L Q C A H L R Q M]",1520 nM
5,"CC[C@H](C)[C@H](N)C(=O)N1CCC[C@H]1C(=O)N[C@@H](Cc1c[nH]c2ccccc12)C(=O)N[C@H]1CSSC[C@@H](C(=O)N[C@@H](C)C(=O)N[C@@H](Cc2c[nH]c3ccccc23)C(=O)N[C@@H](C)C(=O)N[C@@H](CCCNC(=N)N)C(=O)N[C@@H](CCC(N)=O)C(=O)N[C@@H](CCSC)C(=O)NCC(=O)NCC(=O)O)NC(=O)[C@H](CCC(N)=O)NC(=O)[C@H](CC(C)C)NC(=O)CNC(=O)CNC(=O)[C@@H]2CCCN2C(=O)[C@H](CC(=O)O)NC(=O)[C@H](CC(C)C)NC(=O)[C@H]([C@@H](C)O)NC1=O [SEQ ID NO: 425, I P W C T L D P G G L Q C A W A R Q M]",1850 nM
6,"CC[C@H](C)[C@H](N)C(=O)N1CCC[C@H]1C(=O)N[C@@H](Cc1c[nH]c2ccccc12)C(=O)N[C@H]1CSSC[C@@H](C(=O)N[C@@H](C)C(=O)N[C@@H](Cc2c[nH]c3ccccc23)C(=O)N[C@H](C(=O)N[C@@H](CCCNC(=N)N)C(=O)N[C@@H](CCC(N)=O)C(=O)N[C@@H](CCSC)C(=O)NCC(=O)NCC(=O)O)[C@@H](C)CC)NC(=O)[C@H](CCC(N)=O)NC(=O)[C@H](CC(C)C)NC(=O)CNC(=O)CNC(=O)[C@@H]2CCCN2C(=O)[C@H](CC(=O)O)NC(=O)[C@H](CC(C)C)NC(=O)[C@H]([C@@H](C)O)NC1=O [SEQ ID NO: 426, I P W C T L D P G G L Q C A W I R Q M]",378 nM
7,"CC[C@H](C)[C@H](N)C(=O)N1CCC[C@H]1C(=O)N[C@@H](Cc1c[nH]c2ccccc12)C(=O)N[C@H]1CSSC[C@@H](C(=O)N[C@@H](C)C(=O)N[C@@H](Cc2c[nH]c3ccccc23)C(=O)N[C@H](C(=O)N[C@@H](CCCNC(=N)N)C(=O)N[C@@H](CCC(N)=O)C(=O)N[C@@H](CCSC)C(=O)NCC(=O)NCC(=O)O)C(C)C)NC(=O)[C@H](CCC(N)=O)NC(=O)[C@H](CC(C)C)NC(=O)CNC(=O)CNC(=O)[C@@H]2CCCN2C(=O)[C@H](CC(=O)O)NC(=O)[C@H](CC(C)C)NC(=O)[C@H]([C@@H](C)O)NC1=O [SEQ ID NO: 427, I P W C T L D P G G L Q C A W V R Q M]",411 nM
8,"CC[C@H](C)[C@H](N)C(=O)N1CCC[C@H]1C(=O)N[C@@H](Cc1c[nH]c2ccccc12)C(=O)N[C@H]1CSSC[C@@H](C(=O)N[C@@H](C)C(=O)N[C@@H](Cc2c[nH]c3ccccc23)C(=O)N[C@@H](CC(C)C)C(=O)N[C@@H](C)C(=O)N[C@@H](CCC(N)=O)C(=O)N[C@@H](CCSC)C(=O)NCC(=O)NCC(=O)O)NC(=O)[C@H](CCC(N)=O)NC(=O)[C@H](CC(C)C)NC(=O)CNC(=O)CNC(=O)[C@@H]2CCCN2C(=O)[C@H](CC(=O)O)NC(=O)[C@H](CC(C)C)NC(=O)[C@H]([C@@H](C)O)NC1=O [SEQ ID NO: 428, I P W C T L D P G G L Q C A W L A Q M]",490 nM
9,"CC[C@H](C)[C@H](N)C(=O)N1CCC[C@H]1C(=O)N[C@@H](Cc1c[nH]c2ccccc12)C(=O)N[C@H]1CSSC[C@@H](C(=O)N[C@@H](C)C(=O)N[C@@H](Cc2c[nH]c3ccccc23)C(=O)N[C@@H](CC(C)C)C(=O)N[C@@H](CCCCN)C(=O)N[C@@H](CCC(N)=O)C(=O)N[C@@H](CCSC)C(=O)NCC(=O)NCC(=O)O)NC(=O)[C@H](CCC(N)=O)NC(=O)[C@H](CC(C)C)NC(=O)CNC(=O)CNC(=O)[C@@H]2CCCN2C(=O)[C@H](CC(=O)O)NC(=O)[C@H](CC(C)C)NC(=O)[C@H]([C@@H](C)O)NC1=O [SEQ ID NO: 429, I P W C T L D P G G L Q C A W L K Q M]",466 nM
10,"CC[C@H](C)[C@H](N)C(=O)N1CCC[C@H]1C(=O)N[C@@H](Cc1c[nH]c2ccccc12)C(=O)N[C@H]1CSSC[C@@H](C(=O)N[C@@H](C)C(=O)N[C@@H](Cc2c[nH]c3ccccc23)C(=O)N[C@@H](CC(C)C)C(=O)N[C@@H](Cc2c[nH]cn2)C(=O)N[C@@H](CCC(N)=O)C(=O)N[C@@H](CCSC)C(=O)NCC(=O)NCC(=O)O)NC(=O)[C@H](CCC(N)=O)NC(=O)[C@H](CC(C)C)NC(=O)CNC(=O)CNC(=O)[C@@H]2CCCN2C(=O)[C@H](CC(=O)O)NC(=O)[C@H](CC(C)C)NC(=O)[C@H]([C@@H](C)O)NC1=O [SEQ ID NO: 430, I P W C T L D P G G L Q C A W H K Q M]",682 nM

# Second part, the compound after the results:
row,IC50,Compound
1,521 nM,"CC[C@H](C)[C@H](N)C(=O)N1CCC[C@H]1C(=O)N[C@@H](Cc1c[nH]c2ccccc12)C(=O)N[C@H]1CSSC[C@@H](C(=O)N[C@@H](C)C(=O)N[C@@H](Cc2c[nH]c3ccccc23)C(=O)N[C@@H](CC(C)C)C(=O)N[C@@H](CCCNC(=N)N)C(=O)N[C@@H](C)C(=O)N[C@@H](CCSC)C(=O)NCC(=O)NCC(=O)O)NC(=O)[C@H](CCC(N)=O)NC(=O)[C@H](CC(C)C)NC(=O)CNC(=O)CNC(=O)[C@@H]2CCCN2C(=O)[C@H](CC(=O)O)NC(=O)[C@H](CC(C)C)NC(=O)[C@H]([C@@H](C)O)NC1=O [SEQ ID NO: 431, I P W C T L D P G G L Q C A W L R A M]"
2,942 nM,"CC[C@H](C)[C@H](N)C(=O)N1CCC[C@H]1C(=O)N[C@@H](Cc1c[nH]c2ccccc12)C(=O)N[C@H]1CSSC[C@@H](C(=O)N[C@@H](C)C(=O)N[C@@H](Cc2c[nH]c3ccccc23)C(=O)N[C@@H](CC(C)C)C(=O)N[C@@H](CCCNC(=N)N)C(=O)N[C@@H](CCC(N)=O)C(=O)N[C@@H](C)C(=O)NCC(=O)NCC(=O)O)NC(=O)[C@H](CCC(N)=O)NC(=O)[C@H](CC(C)C)NC(=O)CNC(=O)CNC(=O)[C@@H]2CCCN2C(=O)[C@H](CC(=O)O)NC(=O)[C@H](CC(C)C)NC(=O)[C@H]([C@@H](C)O)NC1=O [SEQ ID NO: 432, I P W C T L D P G G L Q C A W L R Q A]"
3,1070 nM,"CC[C@H](C)[C@H](N)C(=O)N1CCC[C@H]1C(=O)N[C@@H](Cc1c[nH]c2ccccc12)C(=O)N[C@H]1CSSC[C@@H](C(=O)N[C@@H](C)C(=O)N[C@@H](Cc2c[nH]c3ccccc23)C(=O)N[C@@H](CC(C)C)C(=O)N[C@@H](CCCNC(=N)N)C(=O)N[C@@H](C)C(=O)N[C@@H](C)C(=O)NCC(=O)NCC(=O)O)NC(=O)[C@H](CCC(N)=O)NC(=O)[C@H](CC(C)C)NC(=O)CNC(=O)CNC(=O)[C@@H]2CCCN2C(=O)[C@H](CC(=O)O)NC(=O)[C@H](CC(C)C)NC(=O)[C@H]([C@@H](C)O)NC1=O [SEQ ID NO: 433, I P W C T L D P G G L Q C A W L R A A]"
4,602 nM,"CC[C@H](C)[C@H](N)C(=O)N1CCC[C@H]1C(=O)N[C@@H](Cc1c[nH]c2ccccc12)C(=O)N[C@H]1CSSC[C@@H](C(=O)N[C@@H](C)C(=O)N[C@@H](Cc2c[nH]c3ccccc23)C(=O)N[C@@H](CC(C)C)C(=O)N[C@@H](C)C(=O)N[C@@H](C)C(=O)N[C@@H](C)C(=O)NCC(=O)NCC(=O)O)NC(=O)[C@H](CCC(N)=O)NC(=O)[C@H](CC(C)C)NC(=O)CNC(=O)CNC(=O)[C@@H]2CCCN2C(=O)[C@H](CC(=O)O)NC(=O)[C@H](CC(C)C)NC(=O)[C@H]([C@@H](C)O)NC1=O [SEQ ID NO: 434, I P W C T L D P G G L Q C A W L A A A]"
